These results are taken from US11123340B2, “Small-molecule UT-A-selective urea transport inhibitors” (The Regents of the University of California, priority 2014, dated 2021).

The target of assay [1] is T1, rat UT-A1 (Rattus norvegicus, UniProt Q62668).
T1 construct: expressed in transfected cells; host or cells: MDCK cells stably co-expressing rat UT-A1, human AQP1 and YFP-H148Q/V163S
T1 sequence (Q62668 1-929): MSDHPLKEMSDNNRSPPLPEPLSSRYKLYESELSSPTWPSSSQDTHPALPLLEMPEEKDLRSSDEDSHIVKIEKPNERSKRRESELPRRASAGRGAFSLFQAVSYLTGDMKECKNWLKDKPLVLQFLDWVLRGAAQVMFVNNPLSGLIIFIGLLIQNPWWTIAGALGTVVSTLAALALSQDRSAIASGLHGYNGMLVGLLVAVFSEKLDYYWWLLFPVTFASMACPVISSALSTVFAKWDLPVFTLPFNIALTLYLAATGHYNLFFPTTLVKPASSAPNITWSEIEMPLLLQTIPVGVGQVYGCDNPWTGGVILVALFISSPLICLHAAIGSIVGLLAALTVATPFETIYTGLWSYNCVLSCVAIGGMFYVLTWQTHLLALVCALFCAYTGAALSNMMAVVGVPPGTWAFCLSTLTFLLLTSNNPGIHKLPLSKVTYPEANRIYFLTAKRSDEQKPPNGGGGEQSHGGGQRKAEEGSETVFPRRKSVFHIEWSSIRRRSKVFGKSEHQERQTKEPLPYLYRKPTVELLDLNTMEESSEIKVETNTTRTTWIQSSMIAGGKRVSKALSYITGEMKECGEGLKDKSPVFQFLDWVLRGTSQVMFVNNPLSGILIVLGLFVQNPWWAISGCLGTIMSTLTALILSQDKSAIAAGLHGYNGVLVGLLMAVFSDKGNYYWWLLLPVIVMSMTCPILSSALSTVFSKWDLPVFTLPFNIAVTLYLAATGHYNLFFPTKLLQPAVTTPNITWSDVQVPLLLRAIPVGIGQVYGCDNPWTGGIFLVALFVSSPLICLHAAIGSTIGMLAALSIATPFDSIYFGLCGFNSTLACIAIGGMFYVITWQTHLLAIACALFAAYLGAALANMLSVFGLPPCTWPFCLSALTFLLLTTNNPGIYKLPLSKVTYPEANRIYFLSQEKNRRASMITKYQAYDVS
The assay can be described thus: UT-A1 inhibition, fluorescence plate reader assay in MDCK cells expressing UT-A1, AQP1 and YFP-H148Q/V163S. It counts as cell-based. The protocol: Primary screening was done using a collection of 50,000 chemically diverse, drug-like compounds from ChemDiv (San Diego, Calif.). For analysis of structure-activity relationships, >300 commercially available analogs (ChemDiv and Asinex, Winston-Salem, N.C.) were tested. Cells were plated on black 96-well Costar microplates with clear plastic bottoms (Corning, Corning, N.Y.) at 15,000 cells/well and cultured for 24 h at 37° C. before assay. Microplates containing cultured cells were washed twice with PBS and 150 μL of test compound (25 μM final) in PBS was added. Eighty wells contained test compounds, and the first and last columns of each plate contained negative (dimethyl sulfoxide, DMSO) and positive (0.35 mM phloretin) controls. The assays were done on a plate reader (Tecan Trading AG, Switzerland) equipped with a custom YFP filter set. Each assay consisted of a continuous 15-s read (5 Hz) in which 50 μL of 3.2 M urea in PBS was injected at 1 s (at 130 μL/s) to give a 800 mM final urea gradient.
MDCK cells stably expressing rat UT-A1 (see, e.g., Frohlich et al. (2006) Am J Physiol Cell Physiol. 291, C600-D606), YFP-H148Q/V163 S (see, e.g., Galietta, et al. (2001) FEBS Lett. 499, 220-224) and human AQP1, as described previously (see, e.g., Esteva-Font et al. (2013) Chem Biol. 20, 1235-1244), were grown in Dulbecco's modified Eagle medium (DMEM) containing 10% fetal bovine serum (FBS), penicillin G (100 U/mL), streptomycin (100 μg/mL), zeocin (500 μg/mL), geneticin (600 μg/mL) and Hygromycin (500 μg/mL) at 37° C., 5% CO2. A Cell Clone with bright YFP fluorescence and relatively low AQP1 expression was used for the screen to maximize dynamic range.
In order to identify UT-A inhibitors suitable for testing in rats, a collection of 50,000 synthetic small molecules was screened. As diagrammed in FIG. 1A (top), the fluorescence cell-based screen utilized MDCK cells stably rat expressing UT-A1, water channel AQP1 and the cytoplasmic chloride-sensing fluorescent protein YFP-H148Q/V163S. As described and validated previously (see, e.g., Esteva-Font et al. (2013) Chem Biol. 20, 1235-1244), extracellular addition of urea results in osmotic water efflux and cell shrinking, which increases intracellular chloride concentration and reduces YFP fluorescence. Urea entry results in increasing YFP fluorescence as cells re-swell. Inhibitors of UT-A1 urea transport produce a lesser reduction in fluorescence and slowed recovery.

For assay [2], the target named is T2, rat UT-B (Rattus norvegicus, UniProt P97689).
T2 construct: endogenous in cells; host or cells: rat erythrocytes (whole rat blood)
T2 sequence (P97689 1-384): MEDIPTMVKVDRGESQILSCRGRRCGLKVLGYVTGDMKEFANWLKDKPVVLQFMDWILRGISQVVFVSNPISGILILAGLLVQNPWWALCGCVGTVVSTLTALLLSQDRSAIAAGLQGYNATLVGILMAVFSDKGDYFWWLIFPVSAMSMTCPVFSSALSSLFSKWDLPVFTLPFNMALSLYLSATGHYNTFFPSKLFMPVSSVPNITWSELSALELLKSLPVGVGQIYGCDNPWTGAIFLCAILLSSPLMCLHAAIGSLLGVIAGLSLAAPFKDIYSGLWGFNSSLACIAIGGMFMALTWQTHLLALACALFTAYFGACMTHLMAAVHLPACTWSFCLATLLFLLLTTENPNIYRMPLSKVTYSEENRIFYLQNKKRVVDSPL
The assay can be described thus: UT-B inhibition, erythrocyte lysis assay. Format: cell-based. Particulars: for IC50: rat erythrocytes. As for the experimental part: As described (see, e.g., Levin et al. (2007) FASEB J. 21, 551-563), whole rat blood was diluted to a hematocrit of ˜1.5% in PBS containing 1.25 M acetamide and 5 mM glucose. Erythrocyte suspensions (100 μL) were added to 96-well round-bottom microplates and test compounds (1 μL) were added. After 15 min incubation, 20 μL of the erythrocyte suspension was added rapidly to each well containing 180 μL of PBS. Following vigorous mixing, erythrocyte lysis was quantified by absorbance at 710 nm. Non-lysed controls (isosmolar buffer) and lysed controls (0.7 mM phloretin) were added in each plate as negative and positive controls, respectively. Percentage erythrocyte lysis was computed as: % lysis=100% (Aneg−Atest)/(Aneg−Apos), where A is absorbance at 710 nm.
Inhibitor selectivity for rat UT-A1 versus UT-B was investigated using an erythrocyte lysis assay of rat UT-B urea transport, which involved measurement of hypotonic lysis (by near-infrared absorbance) of acetamide-loaded erythrocytes following rapid dilution into acetamide-free buffer.

Assay [3] concerns UT. The note with it: literature; cited from earlier work.

A value given as a limit tells only on which side of the number the result lay.

In the case of `Cc1cc(C)c(S(=O)(=O)Nc2cccc(N3CCCS3(=O)=O)c2)cc1C` [UTA1inh-F03], the IC50 is 3 µM in assay [1] and 15 µM in assay [2].
Taken in the same sequence, the figures for `COc1ccc(F)cc1S(=O)(=O)Nc1cc(N2CCCS2(=O)=O)ccc1C` [UTA1inh-F07] were 15 µM and > 75 µM.
The corresponding values for `Cc1ccc(C)c(S(=O)(=O)Nc2cc(N3CCCS3(=O)=O)ccc2C)c1` [UTA1inh-F06] are 10 µM and > 75 µM.
As for `COc1cc(C)c(C)cc1S(=O)(=O)Nc1ccc(Cl)c(N2CCCS2(=O)=O)c1` [UTA1inh-F13], the IC50 in assay [1] was 8 µM.
Regarding `CC(=O)Nc1ccc(-c2csc(-c3ccccc3)n2)cc1` [UTA1inh-E01], the IC50 in assay [1] turned out to be 3 µM. The “selectivity for UT-A1 versus UT-B” value in assay [2] (rat UT-A1 versus rat UT-B) is “high selectivity”.
Regarding `Cc1ccc(C)c(S(=O)(=O)Nc2cccc(N3CCCS3(=O)=O)c2)c1` [UTA1inh-F02], the IC50 in assay [1] is 15 µM; in assay [2], > 75 µM.
On to `COc1cc(C)c(C)cc1S(=O)(=O)Nc1cccc(N2CCCS2(=O)=O)c1` [UTA1inh-F05], for which the results for the IC50 in assay [1] and in assay [2] were 3 µM and 20 µM, respectively.
As for `COc1ccc(N2CCCS2(=O)=O)cc1NS(=O)(=O)c1cc(C)ccc1C` [UTA1inh-F10], the IC50 in assay [1] is 5 µM; in assay [2] it was > 75 µM.
Taken in the same sequence, the figures for `COc1cc(C)c(C)cc1S(=O)(=O)Nc1cc(N2CCCS2(=O)=O)ccc1C` [UTA1inh-F08] were 30 µM and 20 µM.
Taken in the same sequence, the figures for `COc1ccc(F)cc1S(=O)(=O)Nc1cccc(N2CCCS2(=O)=O)c1` [UTA1inh-F04] were 5 µM and > 75 µM.
Consider `O=C(CCc1ccc(O)cc1)c1c(O)cc(O)cc1O` [phloretin], for which the concentration exhibiting activity in assay [3] was > 0.5 mM.
In the case of `COc1ccc(C)cc1S(=O)(=O)Nc1cccc(N2CCCS2(=O)=O)c1` [UTA1inh-F01], the IC50 worked out at 1 µM in assay [1] and 6 µM in assay [2].
As to `CC(=O)Nc1ccc(-c2csc(C)n2)cc1` [UTA1inh-E03], the IC50 in assay [1] and in assay [2] was > 50 µM in each case.
In the case of `COc1ccc(OC)c(S(=O)(=O)Nc2ccc(Cl)c(N3CCCS3(=O)=O)c2)c1` [UTA1inh-F12], in assay [1], the 50% inhibitory concentration (IC50) was determined as 5 µM.
As for `COc1ccc(N2CCCS2(=O)=O)cc1NS(=O)(=O)c1cc(C)ccc1OC` [UTA1inh-F09], the IC50 was 1 µM in assay [1] and 8 µM in assay [2].
